Where “and” joins values, the source holds several entries; their conditions need not be identical. Equal entries are not always repeated.
Test system: TC71 Ewing sarcoma viability, CellTiter-Glo ATP, 72 h
Assay: cytotoxicity in EWS/Fli1-dependent TC71 cells – cell-based, luminescence, cherry-picked samples, retest, confirmation (AID 720570)

| Structure (SMILES) | AC35 |
| --- | --- |
| O=C(O)c1ccc(N/N=C/c2ccc3nccnc3c2)cc1 | 16.3 µM |
| O=C1NC(=S)NC(=O)C1=Cc1cccn1-c1ccc(O)cc1 | 22.2 µM |
| C[C@H](CO)N1C[C@H](C)[C@H](CN(C)Cc2ccc(C(=O)Nc3ccccc3N)cc2)Oc2ccc(NC(=O)C3CC3)cc2CC1=O | 9.49 µM |
| C[C@@H]1CN([C@@H](C)CO)C(=O)Cc2cc(NC(=O)C3CCCCC3)ccc2O[C@H]1CN(C)Cc1ccc(C(=O)Nc2ccccc2N)cc1 | 15.6 µM |
| O=c1cc(-c2ccccc2)oc2ccc3ccccc3c12 | 10.7 µM |
| CCc1ccc(Cn2ncc3c(C(=O)O)cc(C)nc32)cc1 | 20.8 µM |
| C[C@@H]1CN([C@H](C)CO)C(=O)Cc2cc(N(C)C)ccc2O[C@H]1CN(C)Cc1ccc(C(=O)Nc2ccccc2N)cc1 | 13.6 µM |
| C(=N\Nc1nc2ccccc2[nH]1)/c1ccccn1 | 4.84 µM |
| COC(=O)CC1(C(=O)OC)Oc2ccc(Br)cc2C(=O)N1c1cccc(Cl)c1Cl (stereo not given) | 24.9 µM |
| Cc1ccc(S(=O)(=O)Nc2ccc3c(c2)C(=O)N([C@H](C)CO)C[C@H](C)[C@@H](CN(C)Cc2ccc(C(F)(F)F)cc2)OCCCC[C@H](C)O3)cc1 | 12.1 µM |
| C(=Cc1cnc2ccccc2n1)c1ccc2c(c1)OCO2 | 15.2 µM |
| O=c1[nH]c(=O)n([C@H]2C[C@H](O)[C@@H](CO)O2)cc1F | 0.282 µM |
| CC(C)CC#Cc1ccc([C@@H]2[C@@H](CO)N3CCCCN(S(=O)(=O)c4ccc(F)cc4)C[C@H]23)cc1 | 13.2 µM |
| Cc1ccc(OCCNC(=O)c2cccc(S(=O)(=O)NCc3ccccc3)c2)cc1 | 6.35 µM |
| C[C@H](CO)N1C[C@H](C)[C@H](CN(C)Cc2ccc(Oc3ccccc3)cc2)Oc2ccc(NC(=O)CCCCCC(=O)Nc3ccccc3N)cc2CC1=O | 11.5 µM |
| CCCCC[C@H](C)N1C[C@H](COCc2ccccc2)Oc2cc(N3CC[C@@H](N(C)C)C3)ccc2S1(=O)=O | 14.2 µM |
| OCC1OC(n2cnc3c(NCc4ccco4)ncnc32)C(O)C1O (stereo not given) | 7.82 µM |
| O=C1NC(=O)N(Cc2ccccc2)C(=O)/C1=C\C=C\c1ccco1 | 10.2 µM |
| CN1C(=O)c2cc(NC(=O)c3ccc(C(F)(F)F)cc3)ccc2OC[C@@H]2O[C@@H](CC(=O)NC3Cc4ccccc4C3)CC[C@H]21 | 4.86 µM |
| Nc1nc(N)c2c(ccc3nccc32)[nH]1 | 3.24 µM |
| COCC(=O)Nc1ccc2c(c1)[C@@H]1C[C@@H](CC(=O)NCc3ccc(-c4ccccc4)cc3)O[C@@H](CO)[C@@H]1O2 | 12.9 µM |
| C[C@H](O)C#Cc1ccc2c(c1)O[C@@H](CN(C)Cc1ccc(-c3ccccc3)cc1)[C@H](C)CN([C@@H](C)CO)S2(=O)=O | 3.82 µM and 4.62 µM |
| CN(C)c1ccc(-c2ccnc3c2CC(C)(C(=O)NCc2ccco2)O3)cc1 (stereo not given) | 10.4 µM |

| Structure (SMILES) | AC35 |
| --- | --- |
| Cc1cc(-c2nc3ccccc3s2)ccc1N | 17.7 µM |
| C[C@H]1O[C@@H](O[C@H]2[C@@H](O)C[C@H](O[C@H]3[C@@H](O)C[C@H](O[C@H]4CC[C@@]5(C)[C@H](CC[C@@H]6[C@@H]5C[C@@H](O)[C@]5(C)[C@@H](C7=CC(=O)OC7)CC[C@]65O)C4)O[C@@H]3C)O[C@@H]2C)C[C@H](O)[C@@H]1O | 0.283 µM |
| CC(=O)ON=C1C=CC(=C(C#N)c2ccccc2)C=C1 | 6.03 µM |
| C[C@H](CO)N1C[C@H](C)[C@H](CN(C)CC2CCCCC2)Oc2ccc(NC(=O)CCCCCC(=O)Nc3ccccc3N)cc2CC1=O | 18.9 µM |
| COc1ccc(OC)c(-c2nnc3n2N=C(c2ccc(OC)c(OC4CCCC4)c2)CS3)c1 | 3.81 µM |
| C[C@@H]1CCCCO[C@H](CN(C)Cc2ccc(C(=O)Nc3ccccc3N)cc2)[C@@H](C)CN([C@H](C)CO)C(=O)c2cc(NS(=O)(=O)c3ccc(F)cc3)ccc2O1 | 12.9 µM |
| O=C(O)c1ccc(N/N=C/c2ccc3c(c2)OCO3)cc1 | 9.45 µM |
| Cc1ccc2c(=O)n3c(nc2c1)C(Cc1ccc(O)cc1)NC(=O)c1cc2ccccc2cc1-3 (stereo not given) | 9.76 µM |
| CCCCCCCCn1c2c(c(=N)c3c1CCC3)CCCC2 | 4.88 µM |
| COC1C(C)OC(OC2CC(C)(O)Cc3cc4c(c(O)c32)C(=O)c2c(O)cc3c(c2C4=O)OC2OC3(C)C(O)C(N(C)C)C2O)C(OC)C1(C)OC (stereo not given) | 0.169 µM |
| C[C@]12CCC3C(CCC4=CC(O)CC[C@@]43/C=N/O)C1(O)CCC2C1=CC(=O)OC1 (stereo not given in full) | 1.82 µM |
| CC(C)(C)C(=O)Cn1ncc(Cl)c(Cl)c1=O | 7.6 µM |
| COc1ccc(-c2nc3c(s2)CCc2onc(-c4ccc(OC)cc4)c2-3)cc1 | 13.3 µM |
| C[C@H](CO)N1C[C@H](C)[C@@H](CN(C)Cc2ccc(C(F)(F)F)cc2)OCCCC[C@H](C)Oc2ccc(NS(=O)(=O)c3ccc(F)cc3)cc2C1=O | 17.3 µM |
| O=C1NC2C(=CC(O)C(O)C2O)c2cc3c(cc21)OCO3 (stereo not given) | 3.67 µM |
| Cc1cc(C)c2sc(NNC(=O)c3ccc(S(=O)(=O)N4CCc5ccccc5C4)cc3)nc2c1 | 2.4 µM |
| CO[C@H]1CN(C)C(=O)c2cc(NC(=O)NC(C)C)ccc2OC[C@H](C)N(Cc2ccc(-c3ccccn3)cc2)C[C@@H]1C | 20.8 µM |
| C[C@@H]1CN([C@@H](C)CO)C(=O)Cc2cc(NS(=O)(=O)c3cccs3)ccc2O[C@H]1CN(C)Cc1ccc(Cl)c(Cl)c1 | 12.3 µM |
| C[C@@H]1CN([C@@H](C)CO)S(=O)(=O)c2ccc(C#CC(C)(C)O)cc2O[C@H]1CN(C)Cc1ccc(-c2ccccc2)cc1 | 3.55 µM |
| N#CC1=C(N)Oc2cc(N)ccc2C1c1cccc(F)c1 (stereo not given) | 4.98 µM |
| COc1ccc(-c2cn(-c3ccc(OC)cc3)c3[n+]2-c2ccccc2CC3)cc1 | 14.4 µM |
| COc1ccc(/C=C/C(=O)c2cc(F)ccc2OC(=O)c2ccccc2OC)cc1OC | 1.59 µM |
| COC(=O)C[C@H]1CC[C@@H]2[C@H](COc3ccc(NC(=O)Nc4cccc(Cl)c4)cc3C(=O)N2C)O1 | 15 µM |

| Structure (SMILES) | AC35 |
| --- | --- |
| Cn1ccc2cc(-c3ccc4ncnc(NCc5cccs5)c4c3)ccc21 | 5.67 µM |
| O=C(c1cccc(S(=O)(=O)NCc2ccccc2)c1)N1CCN(c2ccccc2)CC1 | 17.6 µM |
| O=c1ccc2ccccc2c2ccccc12 | 10.5 µM |
| CCOc1ccc(N=Nc2ccc(O)c3ncccc23)cc1 | 2.8 µM |
| CCc1nc(N)nc(N)c1-c1ccc(Cl)cc1 | 6.12 µM |
| CCN1/C(=C/C(C)=C/c2sc3ccccc3[n+]2CC)Sc2ccccc21 | 0.951 µM |
| COc1ccc(Cn2cc3c(-c4ccc(F)cc4)nnc-3c3cc(OC)c(OC)cc32)cc1 | 13.4 µM |
| CN=c1scc(-c2ccccc2F)n1/N=C/c1ccc(O)c(O)c1O | 16.1 µM |
| CCC1=Nc2cc(C(=O)NCC3CCCO3)ccc2Sc2ccc(Br)cc21 (stereo not given) | 6.83 µM |
| Cc1ccc(N2C(=O)c3cccc4c(N)ccc(c34)C2=O)c2cccnc12 | 0.0977 µM |
| C[C@@H]1CN([C@@H](C)CO)C(=O)c2cccc(NC(=O)Nc3cccc4ccccc34)c2O[C@@H]1CN(C)Cc1ccc(C(=O)Nc2ccccc2N)cc1 | 10.8 µM |
| COc1cc(-c2cnc3c(NC=O)cc(-c4cccc(NC(C)=O)c4)cn23)cc(OC)c1OC | 0.385 µM |
| C[C@@H]1CN([C@H](C)CO)S(=O)(=O)c2ccc(C#CC(C)(C)O)cc2O[C@H]1CN(C)Cc1ccc(-c2ccccc2)cc1 | 3.05 µM |
| O=C(Nc1cccc(S(=O)(=O)N2CCCC2)c1)c1ccc(Cl)nc1 | 14 µM |
| Cc1cccc(CN2C(=O)/C(=C\c3ccc(C(=O)NCCCN4CCN(C)CC4)cc3)Oc3ccccc32)c1 | 12.9 µM |
| COc1ccc(C2=Nn3c(nnc3-c3ccccc3OC)SC2)cc1OCC1CC1 | 6.68 µM |
| S=c1[nH]nc(-c2cc(-c3ccccc3)n[nH]2)n1/N=C/C(Br)=C/c1ccccc1 | 13.2 µM |
| C(=N\Nc1nc2ccccc2s1)/c1ccccn1 | 3.07 µM |
| Oc1c(Cl)cc(Cl)c2cccnc12 | 20.7 µM |
| O=C(NCc1cccnc1)C1Cc2c(-c3ccc(Cl)cc3)ccnc2O1 (stereo not given) | 13.2 µM |
| CCCNC(=O)N1[C@H](C#N)[C@H](c2ccc(C#Cc3cccc(F)c3)cc2)[C@H]1CO | 16.1 µM |
| COC1C(O)C(C)OC(OC2C(Oc3cccc4c(O)c5c(=O)oc6ccc(C)c7c(=O)oc(c34)c5c67)OC(C)C(O)C2O)C1O (stereo not given) | 5.5 µM |
| COc1ccc(-c2ccc3c(c2)[C@H]2[C@H](CCN2S(=O)(=O)c2ccc(OC)cc2)[C@@H](CO)N3C)cc1 | 4.48 µM |

| Structure (SMILES) | AC35 |
| --- | --- |
| C[C@@H]1CN([C@H](C)CO)C(=O)c2cc(C#CCN(C)C)cnc2O[C@H]1CN(C)Cc1ccc(-c2ccccc2)cc1 | 22.2 µM |
| COc1ccc(S(=O)(=O)Nc2cccc3c2O[C@H](CN(C)Cc2ccc(C(=O)Nc4ccccc4N)cc2)[C@H](C)CN([C@@H](C)CO)C3=O)cc1 | 5.62 µM |
| Cc1nc2ncccn2c1-c1csc(Nc2ccc(O)cc2)n1 | 4.74 µM |
| Cc1nc(N)nc(N)c1-c1ccc(Cl)c(Cl)c1 | 0.714 µM |
| OC[C@H]1[C@@H](c2ccc(C#CC3CCCC3)cc2)[C@@H]2CN(CCC(F)(F)F)CCCCN12 | 18 µM |
| CCCCCCCCNC(C)C(O)c1ccc(SC(C)C)cc1 (stereo not given) | 12.1 µM |
| COc1ccccc1C(CCNCc1ccc(N(C)C)cc1)c1ccc(OC(C)C)cc1 (stereo not given) | 10.9 µM |
| C[C@H](CO)N1C[C@H](C)[C@H](CN(C)Cc2ccc(C(=O)Nc3ccccc3N)cc2)Oc2c(cccc2N(C)C)C1=O | 17.1 µM |
| C[C@H](CO)N1C[C@H](C)[C@H](CN(C)Cc2ccc(Oc3ccccc3)cc2)Oc2ccc(NC(=O)Cn3cnnn3)cc2CC1=O | 26.9 µM |
| COc1ccc(S(=O)(=O)N2CC[C@@H]3[C@@H](CO)Nc4ccc(-c5ccc(C#N)cc5)cc4[C@@H]32)cc1 | 2.52 µM |
| Nc1nc(N)c2cc(Sc3ccc4ccccc4c3)ccc2n1 | 1.83 µM |
| O=C1/C(=C\c2ccccc2)CN(C(=O)CCN2CCCCC2)C/C1=C/c1ccccc1 | 4.22 µM |
| C[C@@H]1CN([C@H](C)CO)C(=O)Cc2cc(NC(=O)CCCCCC(=O)Nc3ccccc3N)ccc2O[C@@H]1CN(C)CC1CCCCC1 | 16.9 µM |
| CCNC(=O)c1cc2c(c(-c3cccc(-c4cccc(OC)c4)c3)n1)[C@H](CCO)N([S@@](=O)C(C)(C)C)C2 | 7.43 µM |
| CC12CCC(O)CC1CCC1C2CCC2(C)C(C3=CC(=O)OC3)CCC12O (stereo not given) | 1.17 µM |
| COC(=O)C[C@@H]1CC[C@@H]2[C@H](COc3ccc(NC(=O)c4cc(C)on4)cc3C(=O)N2C)O1 | 12 µM |
| C/C(=N\NC(=O)c1n[nH]c2c1CCC2)c1cccs1 | 20.2 µM |
| O=C(Nc1ccc(F)cc1)N1CCCCN2[C@@H](CO)[C@H](c3ccc(C4=CCCCC4)cc3)[C@@H]2C1 | 22.4 µM |
| OC[C@H]1O[C@@H](n2cnc3c(NCc4ccco4)ncnc32)[C@H](O)[C@@H]1O | 8.41 µM |
| N=c1ccn2c(n1)O[C@H]1[C@H](O)[C@@H](CO)O[C@H]12 | 3 µM |
| C[C@H](CO)N1C[C@H](C)[C@H](CN(C)Cc2ccccc2)Oc2ccc(NC(=O)CCCCCC(=O)Nc3ccccc3N)cc2CC1=O | 15.1 µM |

From PubChem BioAssay AID720570 (Broad Institute, 2013)
